Test results: patent US20250228239A1, “MOLECULES HAVING PESTICIDAL UTILITY, AND INTERMEDIATES, COMPOSITIONS, AND PROCESSES, RELATED THERETO” (priority 2024, published 2025)
Like-named read-outs stand apart in the source and are kept apart here.

Key:
Type in all cases: in vivo
[1] = test system: Beet Armyworm (Spodoptera exigua, LAPHEG); assay: Bioassays on Beet Armyworm (BAW), 128-well diet tray assay; details: Spodoptera exigua
Method in brief: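 Test molecule was dissolved in 90:10 acetone-water and applied at 50 μg/cm^2 onto artificial diet in eight wells, then dried. Second instar larvae, one to five per well, were added, and trays were kept vented at 25° C. with a 14:10 photoperiod for five to seven days before mortality was recorded.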

[2] = test system: Cabbage Looper (Trichoplusia ni, TRIPNI); assay: Bioassays on Cabbage Looper (CL), 128-well diet tray assay; details: Trichoplusia ni
Method in brief: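 One to five second-instar larvae per well on artificial diet surface-treated with 50 μg/cm^2 test molecule (applied in 90:10 acetone-water, dried). Held 5–7 days at 25° C, 14:10 light-dark; percent mortality recorded per well and averaged over eight wells.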

[3] = test system: Green Peach Aphid (Myzus persicae, MYZUPE); assay: Bioassays on Green Peach Aphid (GPA), foliar spray on cabbage seedlings; details: 72 h
Protocol: Certain molecules disclosed in this document were tested against GPA using procedures described in the following example. In the reporting of the results, the “GPA & YFM Rating Table” was used (See Table Section).
Cabbage seedlings grown in 3-inch pots, with 2-3 small (3-5 cm) true leaves, were used as test substrate. The seedlings were infested with 20-50 GPA (wingless adult and nymph stages) one day prior to chemical application. Four pots with individual seedlings were used for each treatment. Test molecules (2 mg) were dissolved in 2 mL of acetone/methanol (1:1) solvent, forming stock solutions of 1000 ppm test molecule. The stock solutions were diluted 5× with 0.025% Tween 20 in water to obtain the solution at 200 ppm test molecule. A hand-held aspirator-type sprayer was used for spraying a solution to both sides of […] leaves until runoff. Reference plants (solvent check) were sprayed with the diluent only containing 20% by volume of acetone/methanol (1:1) solvent. Treated plants were held in a holding room for three days at approximately 25° C. and ambient relative humidity (RH) prior to grading. Evaluation was conducted by counting the number of live aphids per plant under a microscope. Percent control was measured using Abbott's correction formula (W. S. Abbott, “A Method of Computing the Effectiveness of an Insecticide” J. Econ. Entomol. 18 (1925), pp. 265-267) as follows. Corrected % Control=100*(X−Y)/X where X=No. of live aphids on solvent check plants and Y=No. of live aphids on treated plants. The results are indicated in the table entitled “Table ABC: Biological Results” (See Table Section).

[4] = test system: Yellow Fever Mosquito (Aedes aegypti, AEDSAE); details: for YFM: Table ABC: Biological Results, species YFM
Method in brief: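 Compounds from 4000 ppm DMSO stocks were diluted in 90:10 water/acetone and dispensed into wells, then infested with about 1-day-old larvae in liver-powder water. Covered plates were held at room temperature for 3 days and each well was scored for mortality against a rating scale; six replicate plates per compound.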

[5] = Table ABC: Biological Results, species BAW, read-out: BAW
[6] = Table ABC: Biological Results, species CL, read-out: CL
[7] = Table ABC: Biological Results, species GPA, read-out: GPA
[8] = Beet Armyworm, rating class, read-out: BAW
[9] = Cabbage Looper, rating class, read-out: CL
[10] = Green Peach Aphid, rating class, read-out: GPA

| SMILES | pest or weed control at 50 µg/cm2 [1, 5] [%] | pest or weed control at 50 µg/cm2 [2, 6] [%] | pest or weed control at 200 µg/mL [3, 7] [%] | YFM [4] | other results |
| --- | --- | --- | --- | --- | --- |
| Nc1c(F)ccc(NC(=O)c2cc(NC(=O)[C@H]3[C@H](c4ccc(F)c(C(F)(F)F)c4)C3(Cl)Cl)ccc2Cl)c1F (relative stereo) [DP8, trans-N-(3-amino-2,4-difluorophenyl)-2-chloro-5-(2,2-dichloro-3-(4-fluoro-3-(trifluoromethyl)phenyl)cyclopropane-1-carboxamido)benzamide] |  |  |  |  | mortality at 50 µg/cm2 ([1]; 168 h, second instar larvae, 50 μg/cm^2 of test molecule on artificial diet, 25° C., five to seven days, average of eight wells, read-out: BAW % Control (or Mortality) rating): 50 to 100%; pest or weed control at 50 µg/cm2 ([1]; Beet Armyworm, Table ABC / ABC-DP rating, read-out: BAW rating): 50 to 100%; mortality at 50 µg/cm2 ([2]; 168 h, second instar larvae, 50 μg/cm^2 of test molecule on artificial diet, 25° C., five to seven days, average of eight wells, read-out: CL % Control (or Mortality) rating): 50 to 100%; pest or weed control at 50 µg/cm2 ([2]; Cabbage Looper, Table ABC / ABC-DP rating, read-out: CL rating): 50 to 100%; mortality at 200 ppm ([3]; 200 ppm test molecule sprayed on infested cabbage seedlings, three days, Abbott's corrected % control, read-out: GPA % Control (or Mortality) rating): 80 to 100%; pest or weed control at 200 µg/mL ([3]; Green Peach Aphid, Table ABC / ABC-DP rating, read-out: GPA rating): 80 to 100%; YFM rating ([4]; Yellow Fever Mosquito, Table ABC / ABC-DP rating): A (80–100); YFM % Control (or Mortality) rating ([4]; about 1 day-old larvae, 4000 ppm master solution diluted with 90:10 water/acetone, 15 μL per well plus 220 μL larval mixture, 3 days, mortality): A (80–100) |
| O=C(Nc1ccc(F)cc1F)c1cc(NC(=O)[C@H]2[C@H](c3cc(Cl)c(Cl)c(Br)c3)C2(Cl)Cl)ccc1Cl (relative stereo) [F1007, trans-5-(3-(3-Bromo-4,5-dichlorophenyl)-2,2-dichlorocyclopropane-1-carboxamido)-2-chloro-N-(2,4-difluorophenyl)benzamide] | 50 to 100 | 50 to 100 | 80 to 100 | A (80–100) |  |
| C#CCN(C(=O)c1cc(NC(=O)[C@H]2[C@H](c3cc(Cl)cc(Cl)c3)C2(Cl)Cl)ccc1Cl)c1ccc(F)cc1C#N (relative stereo) [F1072, trans-2-Chloro-N-(2-cyano-4-fluorophenyl)-5-(2,2-dichloro-3-(3,5-dichlorophenyl)cyclopropane-1-carboxamido)-N-(prop-2-yn-1-yl)benzamide] | 50 to 100 | 50 to 100 | 0 to 80 | A (80–100) |  |
| Nc1c(F)ccc(NC(=O)c2cc(NC(=O)[C@H]3[C@H](c4ccc(Cl)c(C(F)(F)F)c4)C3(Cl)Cl)ccc2Cl)c1F (relative stereo) [F1079, trans-N-(3-Amino-2,4-difluorophenyl)-2-chloro-5-(2,2-dichloro-3-(4-chloro-3-(trifluoromethyl)phenyl)cyclopropane-1-carboxamido)benzamide] | 50 to 100 | 50 to 100 | 80 to 100 | A (80–100) |  |
| O=C(Nc1ccc(F)cc1F)c1cc(NC(=O)[C@H]2[C@H](c3ccc(S(F)(F)(F)(F)F)cc3)C2(Cl)Cl)ccc1Cl (relative stereo) [F1089, trans-2-Chloro-5-(2,2-dichloro-3-(4-(pentafluoro-λ^6-sulfanyl)phenyl)cyclopropane-1-carboxamido)-N-(2,4-difluorophenyl)benzamide] | 50 to 100 | 50 to 100 | 0 to 80 | A (80–100) |  |
| CCN(C(=O)c1cc(NC(=O)[C@H]2[C@H](c3cc(Cl)cc(Cl)c3)C2(Cl)Cl)ccc1Cl)c1ccc(F)cc1C#N (relative stereo) [F1091, trans-2-Chloro-N-(2-cyano-4-fluorophenyl)-5-(2,2-dichloro-3-(3,5-dichlorophenyl)cyclopropane-1-carboxamido)-N-ethylbenzamide] | 50 to 100 | 50 to 100 | 0 to 80 | A (80–100) |  |
| N#Cc1cc(F)ccc1N(Cc1ccccc1)C(=O)c1cc(NC(=O)[C@H]2[C@H](c3cc(Cl)cc(Cl)c3)C2(Cl)Cl)ccc1Cl (relative stereo) [F1099, trans-N-Benzyl-2-chloro-N-(2-cyano-4-fluorophenyl)-5-(2,2-dichloro-3-(3,5-dichlorophenyl)cyclopropane-1-carboxamido)benzamide] | 50 to 100 | 50 to 100 | 0 to 80 | A (80–100) |  |
| O=C(Nc1ccc(F)cc1)c1c(Cl)ccc(NC(=O)[C@H]2[C@H](c3ccc(F)c(Cl)c3)C2(Cl)Cl)c1Cl (relative stereo) [F1103, trans-2,6-Dichloro-3-(2,2-dichloro-3-(3-chloro-4-fluorophenyl)cyclopropane-1-carboxamido)-N-(4-fluorophenyl)benzamide] | 50 to 100 | 50 to 100 | 0 to 80 | A (80–100) |  |
| O=C(Nc1ccc(F)cc1F)c1c(Cl)ccc(NC(=O)[C@H]2[C@H](c3ccc(F)c(Cl)c3)C2(Cl)Cl)c1Cl (relative stereo) [F1105, trans-2,6-dichloro-3-(2,2-dichloro-3-(3-chloro-4-fluorophenyl)cyclopropane-1-carboxamido)-N-(2,4-difluorophenyl)benzamide] | 50 to 100 | 50 to 100 | 0 to 80 | A (80–100) |  |
| O=C(Nc1ccccc1)c1c(F)ccc(NC(=O)[C@H]2[C@H](c3ccc(F)c(Cl)c3)C2(Cl)Cl)c1F (relative stereo) [F1108, trans-3-(2,2-Dichloro-3-(3-chloro-4-fluorophenyl)cyclopropane-1-carboxamido)-2,6-difluoro-N-phenylbenzamide] | 50 to 100 | 50 to 100 | 80 to 100 | A (80–100) |  |
| O=C(Nc1ccc(F)cc1F)c1cc(NC(=O)[C@H]2[C@H](c3cc(Cl)c(Cl)c(C(F)(F)F)c3)C2(Cl)Cl)ccc1Cl (relative stereo) [F1147, trans-2-Chloro-5-(2,2-dichloro-3-(3,4-dichloro-5-(trifluoromethyl)phenyl)cyclopropane-1-carboxamido)-N-(2,4-difluorophenyl)benzamide] | 50 to 100 | 50 to 100 | 80 to 100 | A (80–100) |  |
| Cc1c(NC(=O)c2cc(NC(=O)[C@H]3[C@H](c4cc(Cl)cc(Cl)c4)C3(Cl)Cl)ccc2Cl)ccc([N+](=O)[O-])c1C (relative stereo) [F1180, trans-2-chloro-5-(2,2-dichloro-3-(3,5-dichlorophenyl)cyclopropane-1-carboxamido)-N-(2,3-dimethyl-4-nitrophenyl)benzamide] | 50 to 100 | 50 to 100 | 0 to 80 | A (80–100) |  |
| N#CCC(=O)Nc1c(F)ccc(NC(=O)c2cc(NC(=O)[C@H]3[C@H](c4ccc(F)c(Cl)c4)C3(Cl)Cl)ccc2Cl)c1F [F1700, 2-Chloro-N-(3-(2-cyanoacetamido)-2,4-difluorophenyl)-5-((1R,3R)-2,2-dichloro-3-(3-chloro-4-fluorophenyl)cyclopropane-1-carboxamido)benzamide] |  |  |  |  | pest or weed control at 50 µg/cm2 [1, 8]: 50 to 100%; pest or weed control at 50 µg/cm2 [2, 9]: 50 to 100%; pest or weed control at 200 µg/mL [3, 10]: 0 to 80% |
| COCC(=O)Nc1c(F)ccc(NC(=O)c2cc(NC(=O)[C@H]3[C@H](c4ccc(F)c(C(F)(F)F)c4)C3(Cl)Cl)ccc2Cl)c1F [F1724, 2-Chloro-5-((1R,3R)-2,2-dichloro-3-(4-fluoro-3-(trifluoromethyl)phenyl)cyclopropane-1-carboxamido)-N-(2,4-difluoro-3-(2-methoxyacetamido)phenyl)benzamide] |  |  |  |  | pest or weed control at 50 µg/cm2 [1, 8]: 50 to 100%; pest or weed control at 50 µg/cm2 [2, 9]: 50 to 100%; pest or weed control at 200 µg/mL [3, 10]: 80 to 100% |
